{
  "source": "patent US9090701B2",
  "about": "“Methods of detecting oxidized calcium/calmodulin dependent protein kinase II” (University of Iowa Research Foundation, priority 2008, dated 2015)",
  "key": {"oxCaMKII": {"system": "oxCaMKII", "experiment": "Western blot of blood samples for oxidized CaMKII", "type": "in vivo, mice", "conditions": "mice with cancer, N=1 per group", "from_the_text": "In order to test whether the anti-oxCaMKII antiserum was suitable for detecting increased CaMKII oxidation in blood under disease conditions associated with enhanced oxidative stress, validated mouse models were utilized. […] (See FIG. 15). Western blot of blood samples and ImageJ analysis were used to quantify total and oxidized CaMKII. (See FIG. 15). […] Mice were exposed to cancer cells and treated with either saline or 2DG. Those mice that tailed to develop tumors after 60 days were labeled as controls. (See FIG. 16). Western blot of blood samples and ImageJ analysis were used to quantify total and oxidized CaMKII. (See FIG. 16). […] (See FIG. 16). Mice were divided into four groups based on the presence or absence of cancer and whether or not they received treatment. Western blot of blood samples and ImageJ analysis were used to quantify total and oxidized CaMKII. (See FIG. 18). Both cancer and varied treatments increase blood oxCaMKII in an additive manner."}, "Ca^2+/CaM/CaMKII complex": {"target": "Ca^2+/CaM/CaMKII complex (Mus musculus, UniProt Q6PHZ2)", "type": "binding", "quoted_text": "Spectra were collected at 30° C. using a Fluorolog 3 (Jobin Yvon, Horiba) spectrofluorometer. For intrinsic fluorescence shift experiments, excitation wavelength was 270 nm. Emission spectra were generated at Iran increments from 280 nm to 400 nm. Background traces were subtracted from CaMKII spectra to eliminate the contribution from intrinsic fluorescence of CaM. For fluorescence anisotropy experiments, baseline traces of 100 nM dansylated CaM in 15 mM HEPES buffer, pH 7.2 were measured at baseline and after the addition of 200 μM CaCl2 at 60 s. At 180 s, 100 nM purified CaMKII was added to the CaM solution. For some trials, CaMKII became phosphorylated by the addition of 10 mM ATP. 100 μM H2O2 or an equivalent volume of buffer was added at 250 s. Finally, addition of 10 mM EGTA at 300 s was used to remove free calcium from the solution, uncoupling CaM/CaMKII binding."}, "cardiomyocytes": {"system": "cardiomyocytes", "experiment": "Isolated cardiomyocyte TUNEL staining", "type": "cell-based, mouse", "description": "(§1) Myocyte isolations from neonatal mouse or rat pups were modified from previously described methods (Mohler e.g., 2007). To generate the primary cardiomyocyte cultures, hearts were dissected from P1 animals and placed in 1 mL of Ham's F-10. Atrial tissue was removed and the ventricular chambers were rinsed to remove any remaining blood. Hearts were transferred into 1.5 mL of 0.05% Trypsin, 200 μM EDTA in Ham's F-10 medium (Mediatech). Hearts were minced into approximately 20 small pieces using forceps and small scissors and incubated in the Trypsin/EDTA medium at 37° C. Following 15 min, the heart pieces were mixed by a Pasteur pipette and incubated for an additional 15 min. A mixture of 200 μL of soybean trypsin inhibitor (2 mg/mL; Worthington) and 200 μL of collagenase (0.2 mg/mL; 1980 units/mg; Sigma) was incubated with the cells for 35-50 min at 37° C. The cell suspension was pelleted, resuspended in “Complete Medium” (40% DMEM, 40% Ham's F-10, 20% FCS), and plated on plastic dishes. Following five hours, the non-adhered cells (cardiomyocytes) were aspirated from the plate, pelleted, resuspended in Complete Medium, and plated on Mattek tissue culture plates (fibronectin-coated; Roche). Cardiomyocytes were washed with Ham's F-10 and Medium was replaced with “Defined Medium” to prevent the growth of fibroblasts. 100× Defined Medium consists of 100 μg/mL insulin, 500 μg/mL transferrin, 100 nM LiCl, 100 nM NaSeO4, and 10 nM thyroxine. To ensure that pure populations of cardiomyocytes were obtained, cultures were immunolabeled with alpha-actinin Ig (cardiomyocyte-specific marker). Only cultures with >90% cardiomyocytes were used in experiments. (See FIG. 12.) Lentiviral treatments (shRNA, rescue constructs) and apoptosis inducing agents (Iso, AngII) were used for 24 hours. Cells were fixed in 4% paraformaldehyde, permeabilized in 0.1% Triton X-100 and sodium citrate, and stained using In Situ cell death detection kits, TMR Red (Roche). TUNEL stain assays were interpreted as previously described (Yang e.g., 2006). Nuclei were co-stained with DAPI. Investigators were blinded to the genetic identity and treatment of the mice in all studies.\nCardiomyocytes from mice that express an inhibitory peptide against CaMKII (AC3-I, Zhang e.g., 2005) were treated with 100 nM AngII for 24 hours in parallel with isolated cardiomyocytes from WT and p47^−/− mice. […] Activity assays for caspase-3, a downstream target enzyme in the CaMKII apoptotic signaling pathway in heart, recapitulated the results from the TUNEL assay (FIG. 7A)."}, "CaMKIIα": {"target": "CaMKIIα (Homo sapiens, UniProt Q9UQM7)", "sequence (Q9UQM7 whole entry)": "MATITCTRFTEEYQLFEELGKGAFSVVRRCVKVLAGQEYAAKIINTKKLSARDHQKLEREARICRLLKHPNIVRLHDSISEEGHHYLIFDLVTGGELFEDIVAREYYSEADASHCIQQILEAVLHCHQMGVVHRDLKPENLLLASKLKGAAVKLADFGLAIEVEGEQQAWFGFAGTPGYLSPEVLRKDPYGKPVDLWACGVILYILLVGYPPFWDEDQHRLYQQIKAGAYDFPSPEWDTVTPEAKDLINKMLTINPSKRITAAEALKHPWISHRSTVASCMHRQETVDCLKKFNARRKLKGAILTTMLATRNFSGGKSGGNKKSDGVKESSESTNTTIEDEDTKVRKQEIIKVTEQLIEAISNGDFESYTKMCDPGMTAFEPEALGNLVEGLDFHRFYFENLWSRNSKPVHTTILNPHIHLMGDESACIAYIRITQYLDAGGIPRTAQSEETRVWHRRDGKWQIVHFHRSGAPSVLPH", "description": "(§2) Mutant CaMKII cDNAs were generated using a QuikChange site-directed mutagenesis kit (Stratagene). CaMKIIδ (GenBank #NP_001020609) was generated using the Bac-to-Bac baculovirus system (Invitrogen) and purified on a calmodulin-agarose column. For CaMKII activity assays, purified CaMKII was pretreated with 200 μM CaCl2 and 1 μM CaM on ice for 1 minute. The protein was then exposed to ATP, H2O2, or water at the described concentrations for 10 minutes. Samples exposed to ATP or H2O2 were then treated with 10 mM EGTA for 10 minutes. CaMKII activity was measured as a function of ^32P-ATP incorporation into a synthetic substrate (syntide-2) at 30° C., as previously described (Wu e.g., 2002).\n(§3) These mutants were exposed to H2O2 and assayed for activity in the presence of EGTA (FIG. 1C). […] While the paired methionine motif is conserved in the β, γ, and δ isoforms of CaMKII, the neuronal α isoform substitutes a cysteine residue for the first methionine of the pair (position 280 in CaMKIIα). The side chain of cysteine is also susceptible to oxidation. A M281C mutant of CaMKIIδ was generated to mimic the substitution in CaMKIIα. Additionally, CaMKIIα was generated and purified. […] To further elucidate the role of M281 and M282 in ROS-dependent activation, these sites were individually mutated."}, "CaMKIIδ [1]": {"target": "T1, CaMKIIδ (Mus musculus, UniProt Q6PHZ2)", "T1 sequence (Q6PHZ2 2-499)": "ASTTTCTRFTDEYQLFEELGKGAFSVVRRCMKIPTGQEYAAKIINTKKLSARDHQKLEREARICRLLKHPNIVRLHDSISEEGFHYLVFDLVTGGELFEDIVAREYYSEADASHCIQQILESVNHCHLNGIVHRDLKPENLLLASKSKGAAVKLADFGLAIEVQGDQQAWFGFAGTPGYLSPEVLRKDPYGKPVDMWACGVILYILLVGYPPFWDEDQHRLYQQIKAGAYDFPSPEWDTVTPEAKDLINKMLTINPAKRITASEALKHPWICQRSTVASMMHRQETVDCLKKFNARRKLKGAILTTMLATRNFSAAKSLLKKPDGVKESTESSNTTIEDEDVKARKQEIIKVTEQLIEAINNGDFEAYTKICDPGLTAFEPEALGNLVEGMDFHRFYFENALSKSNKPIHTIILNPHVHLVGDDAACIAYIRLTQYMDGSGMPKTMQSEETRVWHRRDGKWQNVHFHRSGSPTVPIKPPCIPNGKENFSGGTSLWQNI", "type": "biochemical", "description": "as §2\n(§4) CaMKII is activated by Ca^2+/CaM, but autophosphorylation at T287 sustains catalytic activity after dissociation of Ca^2+/CaM (FIG. 1A) because the negatively charged phosphate prevents reassociation of the catalytic domain and autoinhibitory region (Hudmon and Schulman, 2002). CaMKII activity may also be enhanced by pro-oxidant conditions (Zhu e.g., 2007); it therefore was hypothesized that oxidation of the regulatory domain in the vicinity of T287 could sustain CaMKII catalytic activity by an analogous mechanism.\nas §3, with “mutated. […]” for “mutated.”"}, "CaMKIIδ [2]": {"target": "T1, CaMKIIδ", "conditions": "after Ca2+/CaM binding", "description": "It seemed possible that conditions capable of oxidizing methionine residues would also oxidize unprotected cysteine residues. […] In order to comprehensively test the potential role of all accessible cysteines in contributing to oxidation-dependent CaMKII activity, CaMKII activity responses to H2O2 in the presence of iodoacetic acid were measured. Iodoacetic acid is a reagent that blocks oxidation of unprotected cysteine residues (Zangerle e.g., 1992)."}, "CaMKIIδ [3]": {"system": "CaMKIIδ", "type": "biochemical", "conditions": "for H2O2 (oxidation/ROS)-dependent activation of CaMKII mutant: exposed to H2O2, assayed in the presence of EGTA", "description": "as §2, §4\nas §3, with “mutated. […]” for “mutated.”"}, "rat CaMKIIδ": {"system": "rat CaMKIIδ", "experiment": "CaMKIIδ shRNA knockdown and rescue in cultured neonatal cardiomyocytes", "type": "cell-based", "conditions": "shRNA-treated cells; for Rescue of apoptotic response to AngII: 24 hours", "description": "as §1\nThe CaMKIIδ-specific shRNA target sequence was selected based on the algorithm of Chalk, Wahlestedt, and Sonnhammer and others (Hammond e.g., 2000; Bernstein e.g., 2001; Brummelkamp e.g., 2002). […] Sense and anti-sense sequences were created and ligated into a modified pFIV lentiviral vector (SBI). For rescue experiments, full-length rat CaMKIIδ was cloned into pCDH1-MCS1-EF1-copOFP (SBI) and completely sequenced. The resulting construct was then modified to be shRNA resistant by engineering conserved residue wobble base changes at four positions in the template (CTG[A]-GCT[C]-ACG[A]-AGA[G] (SEQ ID NO:7))→LATR to LATR. […]"}, "CaMKIIδ [4]": {"target": "T2, CaMKIIδ (Mus musculus, UniProt Q6PHZ2, M281V)", "T2 construct": "CaMKIIδ (GenBank #NP_001020609) was generated using the Bac-to-Bac baculovirus system; made in house; host or cells: Bac-to-Bac baculovirus system (Invitrogen)", "T2 sequence (Q6PHZ2 2-499 M281V)": "as the sequence (Q6PHZ2 2-499) above, with M280V counted along it", "type": "biochemical", "conditions": "single point mutation, H2O2", "description": "as §2, §4\nas §3, with “mutated. […]” for “mutated.”"}, "CaMKIIδ [5]": {"target": "T3, CaMKIIδ (Mus musculus, UniProt Q6PHZ2, T287A)", "T3 construct": "CaMKIIδ (GenBank #NP_001020609) was generated using the Bac-to-Bac baculovirus system; made in house; host or cells: Bac-to-Bac baculovirus system (Invitrogen)", "T3 sequence (Q6PHZ2 2-499 T287A)": "as the sequence (Q6PHZ2 2-499) above, with T286A counted along it", "type": "biochemical", "conditions": "in the presence of ATP", "description": "as §2, §4\nas §3, with “mutated. […]” for “mutated.”"}},
  "data": [
    {"compound": "O=CC[C@@H](O)[C@H](O)[C@H](O)CO", "note": "[2-deoxyglucose]", "values": [
      {"measurement": "Oxidized CaMKII in blood", "setting": "oxCaMKII", "result": "markedly increased oxidized CaMKII"}
    ]},
    {"compound": "OO", "note": "[H2O2, hydrogen peroxide]", "values": [
      {"measurement": "CaM trapping", "setting": "Ca^2+/CaM/CaMKII complex; CaMKII exposure to H2O2 for 10 min", "result": "failed to induce CaM trapping"},
      {"measurement": "Dissociation kinetics of Ca2+/CaM from autophosphorylated CaMKII", "setting": "Ca^2+/CaM/CaMKII complex; pretreatment with H2O2 prior to EGTA", "result": "no significant effect"},
      {"measurement": "Apoptotic effect", "setting": "cardiomyocytes; AC3-I cells compared to WT or p47−/− cells", "result": "blunted by more than half"},
      {"measurement": "Apoptosis", "setting": "cardiomyocytes; p47−/− cells", "result": "caused significant apoptosis"},
      {"measurement": "Activation of purified CaMKIIα by H2O2", "setting": "CaMKIIα", "result": "activated"},
      {"measurement": "Dose dependence of activation of wild type CaMKII by H2O2", "setting": "CaMKIIδ [1]; WT CaMKII", "result": "close-dependent"},
      {"measurement": "CaMKII activation by H2O2", "setting": "CaMKIIδ [1]; after pretreatment with Ca2+/CaM, in the presence of EGTA", "result": "persistent CaMKII activation"},
      {"measurement": "CaMKII activity after exposure to H2O2", "setting": "CaMKIIδ [1]; purified CaMKII, absence of any pre-treatment", "result": "no discernable CaMKII activity"}
    ]},
    {"compound": "O=C(O)CI", "note": "[iodoacetic acid]", "values": [
      {"measurement": "H2O2 activity responses of cysteine protected CaMKIIδ", "setting": "CaMKIIδ [1]; pretreated with 10 mM iodoacetic acid, vs CaMKIIδ without", "result": "equivalent H2O2 activity responses"},
      {"measurement": "Accessibility of cysteine residues to biochemical modification", "setting": "CaMKIIδ [2]", "result": "blocked the accessibility of cysteine residues"}
    ]},
    {"compound": "C290V: CaMKII mutant of the regulatory domain cysteine", "values": [
      {"measurement": "Ca2+/CaM-dependent activation", "setting": "CaMKIIδ [3]", "result": "indistinguishable from WT CaMKII"},
      {"measurement": "H2O2 (oxidation/ROS)-dependent activation of CaMKII mutant", "setting": "CaMKIIδ [3]", "result": "indistinguishable from WT CaMKII"}
    ]},
    {"compound": "M281/282V", "values": [
      {"measurement": "Rescue of apoptotic response to Iso", "setting": "rat CaMKIIδ", "result": "rescued the apoptotic response to Iso"},
      {"measurement": "Rescue of apoptotic response to AngII", "setting": "rat CaMKIIδ", "result": "failed to rescue the apoptotic response to AngII"},
      {"measurement": "H2O2 (oxidation/ROS)-dependent activation of CaMKII mutant", "setting": "CaMKIIδ [3]", "result": "completely abolished"}
    ]},
    {"compound": "M281C: M281C mutant of CaMKIIδ generated to mimic the substitution in CaMKIIα", "values": [
      {"measurement": "H2O2 (oxidation/ROS)-dependent activation of CaMKII mutant", "setting": "CaMKIIδ [3]", "result": "activated by H2O2"}
    ]},
    {"compound": "M281V: CaMKII single point mutant M281V", "values": [
      {"measurement": "Reduction of oxidation-dependent activation", "setting": "CaMKIIδ [4]", "result": 65, "unit": "%"}
    ]},
    {"compound": "M282V: CaMKII single point mutant M282V", "values": [
      {"measurement": "H2O2 (oxidation/ROS)-dependent activation of CaMKII mutant", "setting": "CaMKIIδ [3]", "result": "completely ablated"}
    ]},
    {"compound": "T287A: CaMKII bearing a T287A substitution", "values": [
      {"measurement": "Autophosphorylation (ATP)-dependent Ca2+-independent activity", "setting": "CaMKIIδ [5]", "result": "did not maintain persistent Ca^2+-independent activity"},
      {"measurement": "Ca2+/CaM-dependent activation", "setting": "CaMKIIδ [3]", "result": "normal Ca^2+/CaM-dependent activation"},
      {"measurement": "H2O2 (oxidation/ROS)-dependent activation of CaMKII mutant", "setting": "CaMKIIδ [3]", "result": "activated by H2O2"}
    ]},
    {"compound": "WT CaMKII: shRNA-resistant wild type rat CaMKIIδ rescue construct expressed by lentivirus", "values": [
      {"measurement": "Rescue of apoptotic response to Iso", "setting": "rat CaMKIIδ", "result": "fully rescued"},
      {"measurement": "Rescue of apoptotic response to AngII", "setting": "rat CaMKIIδ", "result": "fully rescued"}
    ]}
  ]
}
